Test results taken from ChEMBL document CHEMBL1201862, “PubChem BioAssay data set” (2004).
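Where inhibition never reached the appropriate level, the endpoint shown equals the highest concentration tested. Otherwise, values were interpolated linearly from a five-concentration, 48-hour dose response in 96-well plates. Here, GI50 denotes the concentration required for 50% inhibition of growth.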 The source made the active and inactive calls. Cut-off read from the data, not from the text of the source: active = GI50 up to about 1.1 µM and inactive = higher.

Columns and labels:
Assay in all cases: inhibition of tumour cell growth, NCI panel, 48 h
HCT-116 = tested on: HCT-116
RXF 393 = tested on: RXF 393
SR = tested on: SR
OVCAR-4 = tested on: OVCAR-4
NCI-H460 = tested on: NCI-H460
HL-60 = tested on: HL-60
SK-OV-3 = tested on: SK-OV-3
UACC-257 = tested on: UACC-257
LOX IMVI = tested on: LOX IMVI
HT-29 = tested on: HT-29
HOP-62 = tested on: HOP-62
SNB-19 = tested on: SNB-19
KM12 = tested on: KM12
SF-295 = tested on: SF-295
MDA-MB-231 = tested on: MDA-MB-231
SF-268 = tested on: SF-268
IGROV-1 = tested on: IGROV-1
SN12C = tested on: SN12C
UACC-62 = tested on: UACC-62
HCC 2998 = tested on: HCC 2998

SMILES	GI50 (HCT-116)	GI50 (RXF 393)	GI50 (SR)	GI50 (OVCAR-4)	GI50 (NCI-H460)	GI50 (HL-60)	GI50 (SK-OV-3)	GI50 (UACC-257)	GI50 (LOX IMVI)	GI50 (HT-29)	GI50 (HOP-62)	GI50 (SNB-19)	GI50 (KM12)	GI50 (SF-295)	GI50 (MDA-MB-231)	GI50 (SF-268)	GI50 (IGROV-1)	GI50 (SN12C)	GI50 (UACC-62)	GI50 (HCC 2998)
c1ccc2c3c(c(N4CCOCC4)nc2c1)CCCC3	40.6 µM (inactive)	19.8 µM (inactive)	46.8 µM (inactive)	49.9 µM (inactive)	34.7 µM (inactive)	14.2 µM (inactive)	86.1 µM (inactive)	40.8 µM (inactive)	39.9 µM (inactive)	22.7 µM (inactive)	92.5 µM (inactive)	36.9 µM (inactive)	38.2 µM (inactive)	39.6 µM (inactive)	32.1 µM (inactive)	66.5 µM (inactive)	> 100 µM (inactive)	34.2 µM (inactive)	55.7 µM (inactive)	32.4 µM (inactive)
CN(C)c1ccc(C=c2c3ccccc3n3c2c2c([n+]3C)CCCC2)cc1	0.0537 µM (active)	0.106 µM (active)	0.0233 µM (active)	0.255 µM (active)	0.11 µM (active)	0.075 µM (active)	0.32 µM (active)	0.301 µM (active)	0.143 µM (active)	0.114 µM (active)	0.165 µM (active)	0.0698 µM (active)	0.0681 µM (active)	0.0991 µM (active)	0.575 µM (active)	0.183 µM (active)	0.138 µM (active)	0.146 µM (active)	0.42 µM (active)	0.0792 µM (active)
Nc1nc(Cl)cc(NCC2(CO)CC(O)C2)n1 (stereo not given)	> 100 µM (inactive)	> 100 µM (inactive)	> 100 µM (inactive)	> 100 µM (inactive)	> 100 µM (inactive)	> 100 µM (inactive)	> 100 µM (inactive)	> 100 µM (inactive)	> 100 µM (inactive)	> 100 µM (inactive)	> 100 µM (inactive)	> 100 µM (inactive)	> 100 µM (inactive)	> 100 µM (inactive)	> 100 µM (inactive)	> 100 µM (inactive)	> 100 µM (inactive)	> 100 µM (inactive)	> 100 µM (inactive)	> 100 µM (inactive)
COc1ccccc1NC(=O)C(C#N)=C(SC)SC	> 100 µM (inactive)	> 100 µM (inactive)	> 100 µM (inactive)	> 100 µM (inactive)	94.2 µM (inactive)	> 100 µM (inactive)	> 100 µM (inactive)	> 100 µM (inactive)	> 100 µM (inactive)	> 100 µM (inactive)	> 100 µM (inactive)	> 100 µM (inactive)	6.78 µM (inactive)	> 100 µM (inactive)	> 100 µM (inactive)	> 100 µM (inactive)	51.9 µM (inactive)	> 100 µM (inactive)	> 100 µM (inactive)	> 100 µM (inactive)
O=C(CN1CCCCC1)c1ccc2c(c1)Sc1ccccc1O2	14.4 µM (inactive)	4.12 µM (inactive)	18.4 µM (inactive)	13 µM (inactive)	14.1 µM (inactive)	14.2 µM (inactive)	15.5 µM (inactive)	18.5 µM (inactive)	10.2 µM (inactive)	10.9 µM (inactive)	16.1 µM (inactive)	13.7 µM (inactive)	16 µM (inactive)	15.7 µM (inactive)	16.7 µM (inactive)	17.5 µM (inactive)	10.6 µM (inactive)	19.2 µM (inactive)	11.5 µM (inactive)	15.5 µM (inactive)
CC(=O)OCC(=O)O[C@@H]1[C@H]2[C@@H](OC(=O)c3ccccc3)[C@@H](C)C[C@]2(O)[C@H](OC(C)=O)[C@@]2(C)C(OC(C)=O)[C@]1(OC(C)=O)C[C@H]1C(=O)C(C)(C)C[C@@H]12 (stereo not given in full)	> 50 µM (inactive)	> 50 µM (inactive)	> 50 µM (inactive)	> 34.2 µM (inactive)	4.12 µM (inactive)	6.46 µM (inactive)	> 50 µM (inactive)	> 50 µM (inactive)	> 50 µM (inactive)	25.8 µM (inactive)	> 22.6 µM (inactive)	> 50 µM (inactive)	> 50 µM (inactive)	22.4 µM (inactive)	> 50 µM (inactive)	> 50 µM (inactive)	> 50 µM (inactive)	> 50 µM (inactive)	> 50 µM (inactive)	25.8 µM (inactive)
CCn1c2ccccc2c2ccc(C3C(C(=O)OC)=C(C)NC(C)=C3C(=O)OC)cc21	43.7 µM (inactive)	15.4 µM (inactive)	42.9 µM (inactive)	51.5 µM (inactive)	35.5 µM (inactive)	20.1 µM (inactive)	> 100 µM (inactive)	48.2 µM (inactive)	35.8 µM (inactive)	33.7 µM (inactive)	55.1 µM (inactive)	55.8 µM (inactive)	33.7 µM (inactive)	31.7 µM (inactive)	15.9 µM (inactive)	73.8 µM (inactive)	> 100 µM (inactive)	45.1 µM (inactive)	87.9 µM (inactive)	42.5 µM (inactive)
COC(=O)C1=C(C)NC(C)=C([N+](=O)[O-])C1c1cccc(N=O)c1 (stereo not given)	10.8 µM (inactive)	13.8 µM (inactive)	3.36 µM (inactive)	11.9 µM (inactive)	16.5 µM (inactive)	> 100 µM (inactive)	21.9 µM (inactive)	12.5 µM (inactive)	16.1 µM (inactive)	16.8 µM (inactive)	19.2 µM (inactive)	29.7 µM (inactive)	13.6 µM (inactive)	21.7 µM (inactive)	18.3 µM (inactive)	17.5 µM (inactive)	16 µM (inactive)	19.7 µM (inactive)	15.5 µM (inactive)	18.9 µM (inactive)
CO/N=C(\C)CCC#Cc1ccccc1C(=O)OC	> 10 µM (inactive)	> 10 µM (inactive)	> 10 µM (inactive)	> 10 µM (inactive)	> 10 µM (inactive)	> 10 µM (inactive)	> 10 µM (inactive)	> 10 µM (inactive)	> 10 µM (inactive)	> 10 µM (inactive)	> 10 µM (inactive)	> 10 µM (inactive)	> 10 µM (inactive)	> 10 µM (inactive)	> 10 µM (inactive)	> 10 µM (inactive)	> 10 µM (inactive)	> 10 µM (inactive)	> 10 µM (inactive)	> 10 µM (inactive)
Cc1cccc(C)c1NC(=O)C(=O)CC(=O)/C=C/c1ccccc1	> 100 µM (inactive)	> 100 µM (inactive)	> 10 µM (inactive)	> 100 µM (inactive)	73.6 µM (inactive)	> 100 µM (inactive)	> 100 µM (inactive)	> 100 µM (inactive)	> 100 µM (inactive)	> 100 µM (inactive)	> 100 µM (inactive)	> 100 µM (inactive)	> 100 µM (inactive)	> 100 µM (inactive)	> 100 µM (inactive)	> 100 µM (inactive)	> 100 µM (inactive)	> 100 µM (inactive)	> 100 µM (inactive)	> 100 µM (inactive)
O=Cc1ccc2ccocc1-2	> 100 µM (inactive)	> 100 µM (inactive)	> 100 µM (inactive)	> 100 µM (inactive)	> 100 µM (inactive)	> 100 µM (inactive)	> 100 µM (inactive)	> 100 µM (inactive)	> 100 µM (inactive)	> 100 µM (inactive)	> 100 µM (inactive)	> 100 µM (inactive)	> 100 µM (inactive)	> 100 µM (inactive)	> 100 µM (inactive)	> 100 µM (inactive)	> 100 µM (inactive)	> 100 µM (inactive)	> 100 µM (inactive)	> 100 µM (inactive)
C[n+]1c(-c2ccc(/C=C/C=N\NC(=O)c3ccc(C(=O)N/N=C\C=C\c4ccc(-c5cn6ccccc6[n+]5C)cc4)cc3)cc2)cn2ccccc21	> 100 µM (inactive)	> 96.2 µM (inactive)	19.9 µM (inactive)	> 81.7 µM (inactive)	> 100 µM (inactive)	30.2 µM (inactive)	> 100 µM (inactive)	> 100 µM (inactive)	> 68.7 µM (inactive)	> 100 µM (inactive)	> 100 µM (inactive)	> 63.4 µM (inactive)	39.1 µM (inactive)	> 100 µM (inactive)	> 43.3 µM (inactive)	> 100 µM (inactive)	> 68.5 µM (inactive)	> 100 µM (inactive)	> 100 µM (inactive)	> 54.7 µM (inactive)
CN1CCN(c2nc3cc(F)ccc3n3cccc23)CC1	25.5 µM (inactive)	23.4 µM (inactive)	43.8 µM (inactive)	30.3 µM (inactive)	18.5 µM (inactive)	39.1 µM (inactive)	45.4 µM (inactive)	26.6 µM (inactive)	15.8 µM (inactive)	24.9 µM (inactive)	31 µM (inactive)	60.3 µM (inactive)	39.2 µM (inactive)	21.2 µM (inactive)	44.2 µM (inactive)	48.6 µM (inactive)	30.8 µM (inactive)	48.5 µM (inactive)	29.4 µM (inactive)	42.1 µM (inactive)
Cc1cc2nc3ccc(N(C)C)cc3[s+]c2cc1N [TOLONIUM CHLORIDE]	1.75 µM (inactive)	7.52 µM (inactive)	3.67 µM (inactive)	3.35 µM (inactive)	2.82 µM (inactive)	0.383 µM (active)	9.71 µM (inactive)	1.37 µM (inactive)	1.96 µM (inactive)	7.93 µM (inactive)	8.97 µM (inactive)	2.69 µM (inactive)	3.84 µM (inactive)	3.62 µM (inactive)	2.41 µM (inactive)	5.38 µM (inactive)	6.22 µM (inactive)	3.1 µM (inactive)	1.89 µM (inactive)	3.7 µM (inactive)
